Data from article PMC6151531, “Development of a Non-Hydroxamate Dual Matrix Metalloproteinase (MMP)-7/-13 Inhibitor” (Molecules : A Journal of Synthetic Chemistry and Natural …, 2017).
Where “and” joins values, the source holds several entries; their conditions need not be identical. Identical values can stand only once. Like-named read-outs stand apart in the source and are kept apart here.

Experiments:
[1] = target: MMP-13 (Homo sapiens, UniProt P45452); test: MMP-13 FRET peptide enzyme assay (single dose 10 μM and IC50); format: biochemical; conditions: for activity at 10 µM: remaining enzyme activity at 10 μM inhibitor concentration; for activity at 10 µM / IC50: measured in duplicate
Experimental: (§1) The buffer consisted of 50 mM HEPES at pH 7.5 with 10 mM CaCl2 and 0.01% Brij-35. 0.1 mg/mL BSA (Sigma Aldrich, St. Louis, MO, USA) was added before use. As a control inhibitor GM6001 (ilomastat, Enzo Life Sciences, Farmingdale, NY, USA) was used. For selectivity examinations single dose duplicate assays were performed in the same manner as described above on the MMP-1, -2, -3, -8, -9, -12 and -14 isoforms.

[2] = target: T1, MMP-7 (Homo sapiens, UniProt P09237); test: MMP-7 FRET peptide enzyme assay (single dose 10 μM and IC50); conditions: for activity at 10 µM: read-out: % Activity MMP-7; for IC50: IC50 MMP-7, measured in duplicate
T1 sequence (P09237 95-267): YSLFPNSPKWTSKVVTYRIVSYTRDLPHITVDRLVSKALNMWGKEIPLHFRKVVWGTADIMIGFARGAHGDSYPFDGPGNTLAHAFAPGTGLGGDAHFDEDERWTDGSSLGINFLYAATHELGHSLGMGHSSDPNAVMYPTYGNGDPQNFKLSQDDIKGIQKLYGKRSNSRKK
Experimental: as §1

[3] = target: T1, MMP-7; conditions: cited from earlier work
[4] = target: T2, MMP-3 (Homo sapiens, UniProt P08254); test: MMP-3 single dose selectivity assay; conditions: read-out: Remaining enzymatic activity MMP-3
[5] = target: T3, MMP-14 (Homo sapiens, UniProt P50281); test: MMP-14 single dose selectivity assay; conditions: read-out: Remaining enzymatic activity MMP-14
Experimental: (§2) The buffer consisted of 50 mM HEPES at pH 7.5 with 10 mM CaCl2 and 0.01% Brij-35. 0.1 mg/mL BSA (Sigma Aldrich, St. Louis, MO, USA) was added before use. As a control inhibitor GM6001 (ilomastat, Enzo Life Sciences, Farmingdale, NY, USA) was used.

[6] = target: T4, MMP-1 (Homo sapiens, UniProt P03956); test: MMP-1 single dose selectivity assay; conditions: read-out: Remaining enzymatic activity MMP-1
T4 sequence (P03956 100-469): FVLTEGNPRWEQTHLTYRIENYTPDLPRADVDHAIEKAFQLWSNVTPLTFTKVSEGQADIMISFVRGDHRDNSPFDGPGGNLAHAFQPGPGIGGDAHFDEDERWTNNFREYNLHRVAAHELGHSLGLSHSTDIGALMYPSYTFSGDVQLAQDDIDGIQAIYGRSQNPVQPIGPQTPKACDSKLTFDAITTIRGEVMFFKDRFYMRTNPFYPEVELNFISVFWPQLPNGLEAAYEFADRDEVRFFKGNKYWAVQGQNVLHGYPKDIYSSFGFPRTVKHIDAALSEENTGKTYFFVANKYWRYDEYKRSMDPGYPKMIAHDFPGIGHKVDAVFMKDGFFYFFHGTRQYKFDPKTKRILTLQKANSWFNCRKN

[7] = target: T5, MMP-12 (Homo sapiens, UniProt P39900); test: MMP-12 single dose selectivity assay; conditions: read-out: Remaining enzymatic activity MMP-12
Experimental: as §2

[8] = target: T6, MMP-2 (Homo sapiens, UniProt P08253); test: MMP-2 single dose selectivity assay; conditions: read-out: Remaining enzymatic activity MMP-2
T6 sequence (P08253 110-660): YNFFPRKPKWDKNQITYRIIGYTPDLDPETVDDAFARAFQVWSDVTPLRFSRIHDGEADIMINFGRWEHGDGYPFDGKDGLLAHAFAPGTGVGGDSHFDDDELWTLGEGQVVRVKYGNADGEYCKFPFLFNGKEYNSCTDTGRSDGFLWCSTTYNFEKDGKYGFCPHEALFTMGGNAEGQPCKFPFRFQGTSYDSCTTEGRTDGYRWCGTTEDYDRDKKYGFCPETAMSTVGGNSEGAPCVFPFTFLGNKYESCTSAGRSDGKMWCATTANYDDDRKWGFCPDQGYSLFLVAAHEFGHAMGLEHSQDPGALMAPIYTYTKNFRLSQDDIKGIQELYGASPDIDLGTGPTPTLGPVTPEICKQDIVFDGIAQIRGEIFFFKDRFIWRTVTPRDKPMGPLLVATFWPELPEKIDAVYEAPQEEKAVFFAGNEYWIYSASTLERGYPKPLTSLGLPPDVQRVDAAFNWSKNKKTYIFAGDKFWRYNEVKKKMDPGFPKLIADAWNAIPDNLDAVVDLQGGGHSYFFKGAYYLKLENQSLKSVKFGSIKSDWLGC

[9] = target: T7, MMP-8 (Homo sapiens, UniProt P22894); test: MMP-8 single dose selectivity assay; conditions: read-out: Remaining enzymatic activity MMP-8
Experimental: as §2

[10] = target: T8, MMP-9 (Homo sapiens, UniProt P14780); test: MMP-9 single dose selectivity assay; conditions: read-out: Remaining enzymatic activity MMP-9
Experimental: as §2

[11] = target: T6, MMP-2; conditions: 10 µM inhibitor concentration; cited from earlier work
[12] = target: T7, MMP-8; conditions: 10 µM inhibitor concentration; cited from earlier work
[13] = target: T4, MMP-1; conditions: 10 µM inhibitor concentration; cited from earlier work
[14] = target: T2, MMP-3; conditions: 10 µM inhibitor concentration; cited from earlier work
[15] = target: T1, MMP-7; conditions: 10 µM inhibitor concentration; cited from earlier work
[16] = target: T8, MMP-9; conditions: 10 µM inhibitor concentration; cited from earlier work
[17] = target: T5, MMP-12; conditions: 10 µM inhibitor concentration; cited from earlier work
[18] = target: T3, MMP-14; conditions: 10 µM inhibitor concentration; cited from earlier work

T7 sequence (P22894 101-467): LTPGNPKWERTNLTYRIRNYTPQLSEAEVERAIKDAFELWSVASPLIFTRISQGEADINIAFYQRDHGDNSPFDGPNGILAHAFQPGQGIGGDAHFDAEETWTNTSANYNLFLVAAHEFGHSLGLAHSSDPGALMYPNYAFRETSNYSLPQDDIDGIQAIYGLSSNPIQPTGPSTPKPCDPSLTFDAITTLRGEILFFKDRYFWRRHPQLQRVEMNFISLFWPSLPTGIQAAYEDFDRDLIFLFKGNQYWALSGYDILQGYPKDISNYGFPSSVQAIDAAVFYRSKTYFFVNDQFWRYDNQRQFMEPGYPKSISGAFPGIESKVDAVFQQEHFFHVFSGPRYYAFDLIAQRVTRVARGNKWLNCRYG
T5 sequence (P39900 106-470): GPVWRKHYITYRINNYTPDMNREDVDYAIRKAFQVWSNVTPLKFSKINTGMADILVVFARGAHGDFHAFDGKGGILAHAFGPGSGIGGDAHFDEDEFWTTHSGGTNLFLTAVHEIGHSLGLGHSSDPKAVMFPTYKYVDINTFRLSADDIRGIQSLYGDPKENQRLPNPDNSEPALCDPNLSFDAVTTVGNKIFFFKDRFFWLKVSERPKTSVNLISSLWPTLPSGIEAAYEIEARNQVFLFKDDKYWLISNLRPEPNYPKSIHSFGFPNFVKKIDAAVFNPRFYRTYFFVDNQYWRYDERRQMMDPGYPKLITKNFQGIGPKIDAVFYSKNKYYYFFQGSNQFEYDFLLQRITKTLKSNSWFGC
T8 sequence (P14780 94-707): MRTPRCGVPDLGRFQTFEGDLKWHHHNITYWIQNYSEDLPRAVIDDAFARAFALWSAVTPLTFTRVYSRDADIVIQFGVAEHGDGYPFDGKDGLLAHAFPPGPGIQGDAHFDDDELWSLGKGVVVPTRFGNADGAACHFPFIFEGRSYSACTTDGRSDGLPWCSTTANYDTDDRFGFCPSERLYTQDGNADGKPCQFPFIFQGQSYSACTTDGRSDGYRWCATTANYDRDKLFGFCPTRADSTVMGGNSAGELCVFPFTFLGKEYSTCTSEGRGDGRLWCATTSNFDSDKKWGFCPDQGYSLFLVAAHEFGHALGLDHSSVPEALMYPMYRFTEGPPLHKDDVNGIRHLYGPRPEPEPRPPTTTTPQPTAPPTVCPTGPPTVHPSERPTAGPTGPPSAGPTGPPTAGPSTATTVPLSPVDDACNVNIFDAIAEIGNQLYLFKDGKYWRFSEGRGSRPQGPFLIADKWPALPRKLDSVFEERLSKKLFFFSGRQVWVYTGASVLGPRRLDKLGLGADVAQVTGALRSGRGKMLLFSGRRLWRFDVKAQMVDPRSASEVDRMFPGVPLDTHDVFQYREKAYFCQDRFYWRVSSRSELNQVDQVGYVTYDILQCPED
T2 sequence (P08254 100-477): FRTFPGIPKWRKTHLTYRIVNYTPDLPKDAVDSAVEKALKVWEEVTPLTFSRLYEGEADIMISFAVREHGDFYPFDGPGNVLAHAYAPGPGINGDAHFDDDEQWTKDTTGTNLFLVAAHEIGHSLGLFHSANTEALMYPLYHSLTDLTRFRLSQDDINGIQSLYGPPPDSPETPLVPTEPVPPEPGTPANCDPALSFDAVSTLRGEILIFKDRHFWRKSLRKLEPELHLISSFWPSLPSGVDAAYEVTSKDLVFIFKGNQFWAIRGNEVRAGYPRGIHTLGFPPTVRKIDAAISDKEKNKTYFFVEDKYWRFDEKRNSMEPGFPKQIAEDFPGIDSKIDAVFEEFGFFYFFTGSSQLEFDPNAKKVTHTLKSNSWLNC

In the case of O=C(O)COc1ccc(CC(=O)Nc2ccc3c(c2)C(=O)N(Cc2ccccc2)C3=O)cc1 [Compound 14b, 2-(4-{[(2-Benzyl-1,3-dioxo-2,3-dihydro-1H-isoindol-5-yl)carbamoyl]methyl}phenoxy)acetic acid], the activity at 10 µM [1] is reported as 58.7 ± 2.7% and the activity at 10 µM [2] is reported as 89.9 ± 10%.

O=C(O)CCCCCCCOc1ccc(CC(=O)Nc2ccc3c(c2)C(=O)N(Cc2ccc(F)cc2)C3=O)cc1 [Compound 14o, 8-{4-[({2-[(4-Fluorophenyl)methyl]-1,3-dioxo-2,3-dihydro-1H-isoindol-5-yl}carbamoyl)methyl]-phenoxy}octanoic acid] gave an activity at 10 µM [1] of 34.6 ± 2.3% and an activity at 10 µM [2] of 64.5 ± 3.7%.

In the case of O=C(O)C(Cc1c[nH]c2ccccc12)NS(=O)(=O)c1ccc(Cl)c(C(F)(F)F)c1 (stereo not shown) [Compound 3], the “selectivity over MMP-1” value ([3]; MMP-7 over MMP-1) is given as 10 fold, the “selectivity over MMP-14” value ([3]; MMP-7 over MMP-14) is given as 10 fold and the IC50 [3] is given as 10 µM.

Compound O=C(O)CCCCCOc1ccc(CC(=O)Nc2ccc3c(c2)C(=O)N(Cc2ccc(F)cc2)C3=O)cc1 [Compound 14m, 6-{4-[({2-[(4-Fluorophenyl)methyl]-1,3-dioxo-2,3-dihydro-1H-isoindol-5-yl}carbamoyl)methyl]-phenoxy}hexanoic acid] has an activity at 10 µM [1] of 1.2 ± 0.1% and an activity at 10 µM [2] of 69.2 ± 0.1%.

For CN1C(=O)c2ccc(NC(=O)Cc3ccc(OCCCCC(=O)O)cc3)cc2C1=O [Compound 14a, 5-(4-{[(2-Methyl-1,3-dioxo-2,3-dihydro-1H-isoindol-5-yl)carbamoyl]methyl}phenoxy)pentanoic acid], the activity at 10 µM [1] was 23.7 ± 3.3%, the “inhibition of MMP-7 (in words)” value ([2]; discussion of structure activity relationship) was “total loss of inhibition” and the activity at 10 µM [2] was 100 ± 4.4%.

For O=C(O)CCCCCCCCOc1ccc(CC(=O)Nc2ccc3c(c2)C(=O)N(Cc2ccccc2)C3=O)cc1 [Compound 14i, 9-(4-{[(2-Benzyl-1,3-dioxo-2,3-dihydro-1H-isoindol-5-yl)carbamoyl]methyl}phenoxy)nonanoic acid], the remaining activity at 10 µM [4] was 73%, the IC50 [1] was 1.2 µM and 1.25 µM and the IC50 [2] was 2.2 µM and 2.25 µM. For the same compound, the remaining activity at 10 µM [5] was 91%, the remaining activity at 10 µM [6] was 100% and the remaining activity at 10 µM [7] was 97%. For the same compound, the remaining activity at 10 µM [8] was 98%, the remaining activity at 10 µM [9] was 80% and the remaining activity at 10 µM [10] was 87%.

For O=C(O)CCCCCCCOc1ccc(CC(=O)Nc2ccc3c(c2)C(=O)N(Cc2ccccc2)C3=O)cc1 [Compound 14h, 8-(4-{[(2-Benzyl-1,3-dioxo-2,3-dihydro-1H-isoindol-5-yl)carbamoyl]methyl}phenoxy)octanoic acid], the IC50 [1] was 1.67 ± 0.429 µM, the activity at 10 µM [1] was 16 ± 0.14% and the IC50 [2] was 3.18 ± 0.249 µM. It also gave an activity at 10 µM [2] of 25.9 ± 0.5%.

With O=C(O)CCOc1ccc(CC(=O)Nc2ccc3c(c2)C(=O)N(Cc2ccccc2)C3=O)cc1 [Compound 14c, 3-(4-{[(2-Benzyl-1,3-dioxo-2,3-dihydro-1H-isoindol-5-yl)carbamoyl]methyl}phenoxy)propanoic acid] the activity at 10 µM [1] was 35.8 ± 5.1% and the activity at 10 µM [2] was 93.1 ± 1.7%.

O=C(O)CCCCCCOc1ccc(CC(=O)Nc2ccc3c(c2)C(=O)N(Cc2ccc(F)cc2)C3=O)cc1 [Compound 14n, 7-{4-[({2-[(4-Fluorophenyl)methyl]-1,3-dioxo-2,3-dihydro-1H-isoindol-5-yl}carbamoyl)methyl]-phenoxy}heptanoic acid] showed an activity at 10 µM [1] of 1.9 ± 0.5% and an activity at 10 µM [2] of 47.5 ± 5.1%.

Work on O=C(O)CCCCCOc1ccc(CC(=O)Nc2ccc3c(c2)C(=O)N(Cc2ccccc2)C3=O)cc1 [Compound 14f, 6-(4-{[(2-Benzyl-1,3-dioxo-2,3-dihydro-1H-isoindol-5-yl)carbamoyl]methyl}phenoxy)hexanoic acid] yielded an activity at 10 µM [1] of 2.5 ± 0.1% and an activity at 10 µM [2] of 59.4 ± 0.2%.

For O=C(O)CCCCOc1ccc(CC(=O)Nc2ccc3c(c2)C(=O)N(Cc2ccc(F)cc2)C3=O)cc1 [Compound 5, 5-{4-[({2-[(4-Fluorophenyl)methyl]-1,3-dioxo-2,3-dihydro-1H-isoindol-5-yl}carbamoyl)methyl]-phenoxy}pentanoic acid], the “Remaining enzymatic activity MMP-2” value [11] is given as 100%, the “Remaining enzymatic activity MMP-8” value [12] is given as 97% and the “Remaining enzymatic activity MMP-1” value [13] is given as 100%. The “Remaining enzymatic activity MMP-3” value [14] was 100%, the “selectivity for MMP-13 over MMP-7” value ([1]; from IC50-values) was > 2600 fold and the IC50 [2] was 15.7 µM and 15.6 µM. The activity at 10 µM [2] was 67.5 ± 2.6%, the “Remaining enzymatic activity MMP-7” value [15] was 68% and the “Remaining enzymatic activity MMP-9” value [16] was 100%. For the same compound, the “Remaining enzymatic activity MMP-12” value [17] was 91% and the “Remaining enzymatic activity MMP-14” value [18] was 100%.

O=C(O)CCOc1ccc(CC(=O)Nc2ccc3c(c2)C(=O)N(Cc2ccc(F)cc2)C3=O)cc1 [Compound 14k, 3-{4-[({2-[(4-Fluorophenyl)methyl]-1,3-dioxo-2,3-dihydro-1H-isoindol-5-yl}carbamoyl)methyl]-phenoxy}propanoic acid] gave an activity at 10 µM [1] of 37 ± 0.2% and an activity at 10 µM [2] of 98 ± 7.3%.

In the case of O=C(O)CCCOc1ccc(CC(=O)Nc2ccc3c(c2)C(=O)N(Cc2ccc(F)cc2)C3=O)cc1 [Compound 14l, 4-{4-[({2-[(4-Fluorophenyl)methyl]-1,3-dioxo-2,3-dihydro-1H-isoindol-5-yl}carbamoyl)methyl]-phenoxy}butanoic acid], the IC50 [1] is reported as 0.361 ± 0.052 µM, the activity at 10 µM [1] is reported as 3.6 ± 1.1% and the activity at 10 µM [2] is reported as 85.1 ± 2.2%.

O=C(O)CCCCCCCCCOc1ccc(CC(=O)Nc2ccc3c(c2)C(=O)N(Cc2ccccc2)C3=O)cc1 [Compound 14j, 10-(4-{[(2-Benzyl-1,3-dioxo-2,3-dihydro-1H-isoindol-5-yl)carbamoyl]methyl}phenoxy)decanoic acid] gave an IC50 [1] of 7.12 ± 0.94 µM and an IC50 [2] of 6.2 ± 1.85 µM.

With O=C(O)CCCCCCOc1ccc(CC(=O)Nc2ccc3c(c2)C(=O)N(Cc2ccccc2)C3=O)cc1 [Compound 14g, 7-(4-{[(2-Benzyl-1,3-dioxo-2,3-dihydro-1H-isoindol-5-yl)carbamoyl]methyl}phenoxy)heptanoic acid] the IC50 [1] was 0.15 ± 0.031 µM, the activity at 10 µM [1] was 1 ± 0.1% and the activity at 10 µM [2] was 53.8 ± 0.8%.

With O=C(O)CCCOc1ccc(CC(=O)Nc2ccc3c(c2)C(=O)N(Cc2ccccc2)C3=O)cc1 [Compound 14d, 4-(4-{[(2-Benzyl-1,3-dioxo-2,3-dihydro-1H-isoindol-5-yl)carbamoyl]methyl}phenoxy)butanoic acid] the activity at 10 µM [1] was 2.6 ± 1.3% and the activity at 10 µM [2] was 91.3 ± 0.4%.

Compound O=C(O)CCCCOc1ccc(CC(=O)Nc2ccc3c(c2)C(=O)N(Cc2ccccc2)C3=O)cc1 [Compound 14e, 5-(4-{[(2-Benzyl-1,3-dioxo-2,3-dihydro-1H-isoindol-5-yl)carbamoyl]methyl}phenoxy)pentanoic acid] has an activity at 10 µM [2] of 93.2 ± 3.3%.
